Measurements: PMC3115942 (PLoS ONE, 2011)

How the values were obtained:
Experiment in all cases: Millipore kinaseprofiler diversity array
Assay type in all cases: biochemical
Conditions in all cases: 10 µM MS-0022
ALK(h) = biological target: T1, ALK(h) (Homo sapiens, UniProt Q9UM73)
T1 construct: purchased Millipore (Upstate) KinaseProfiler
Method: (§1) Table 4 Kinase activity in presence of 10 µM MS-0022 in a kinaseprofiler diversity array. | column: Activity %

MAPK2(h) = biological target: T2, MAPK2(h) (Homo sapiens, UniProt P28482)
T2 construct: purchased Millipore (Upstate) KinaseProfiler
Method: as §1

eEF-2K(h) = biological target: T3, eEF-2K(h) (Homo sapiens, UniProt O00418)
T3 construct: purchased Millipore (Upstate) KinaseProfiler
Method: as §1

DRAK1(h) = biological target: T4, DRAK1(h) (Homo sapiens, UniProt Q9UEE5)
T4 construct: purchased Millipore (Upstate) KinaseProfiler
Method: as §1

CDK9/cyclin T1(h) = biological target: T5, CDK9/cyclin T1(h) (Homo sapiens, UniProt P50750)
T5 construct: purchased Millipore (Upstate) KinaseProfiler
Method: as §1

MST1(h) = biological target: T6, MST1(h) (Homo sapiens, UniProt Q13043)
T6 construct: purchased Millipore (Upstate) KinaseProfiler
Method: as §1

CHK1(h) = biological target: T7, CHK1(h) (Homo sapiens, UniProt O14757)
T7 construct: purchased Millipore (Upstate) KinaseProfiler
Method: as §1

IKKα(h) = biological target: T8, IKKα(h) (Homo sapiens, UniProt O15111)
T8 construct: purchased Millipore (Upstate) KinaseProfiler
Method: as §1

PRAK(h) = biological target: T9, PRAK(h) (Homo sapiens, UniProt Q8IW41)
T9 construct: purchased Millipore (Upstate) KinaseProfiler
Method: as §1

PKA(h) = biological target: T10, PKA(h) (Homo sapiens, UniProt P17612)
T10 construct: purchased Millipore (Upstate) KinaseProfiler
Method: as §1

Plk3(h) = biological target: T11, Plk3(h) (Homo sapiens, UniProt Q9H4B4)
T11 construct: purchased Millipore (Upstate) KinaseProfiler
Method: as §1

MAPKAP-K2(h) = biological target: T12, MAPKAP-K2(h) (Homo sapiens, UniProt P49137)
T12 construct: purchased Millipore (Upstate) KinaseProfiler
Method: as §1

JNK3(h) = biological target: T13, JNK3(h) (Homo sapiens, UniProt P53779)
T13 construct: purchased Millipore (Upstate) KinaseProfiler
Method: as §1

MKK7β(h) = biological target: T14, MKK7β(h) (Homo sapiens, UniProt O14733)
T14 construct: purchased Millipore (Upstate) KinaseProfiler
Method: as §1

PKG1α(h) = biological target: T15, PKG1α(h) (Homo sapiens, UniProt Q13976)
T15 construct: purchased Millipore (Upstate) KinaseProfiler
Method: as §1

Mnk2(h) = biological target: T16, Mnk2(h) (Homo sapiens, UniProt Q9HBH9)
T16 construct: purchased Millipore (Upstate) KinaseProfiler
Method: as §1

PKBα(h) = biological target: T17, PKBα(h) (Homo sapiens, UniProt P31749)
T17 construct: purchased Millipore (Upstate) KinaseProfiler
Method: as §1

CDK7/cyclinH/MAT1(h) = biological target: T18, CDK7/cyclinH/MAT1(h) (Homo sapiens, UniProt P50613)
T18 construct: purchased Millipore (Upstate) KinaseProfiler
Method: as §1

JAK2(h) = biological target: T19, JAK2(h) (Homo sapiens, UniProt O60674)
T19 construct: purchased Millipore (Upstate) KinaseProfiler
Method: as §1

ASK1(h) = biological target: T20, ASK1(h) (Homo sapiens, UniProt Q99683)
T20 construct: purchased Millipore (Upstate) KinaseProfiler
Method: as §1

PKCα(h) = biological target: T21, PKCα(h) (Homo sapiens, UniProt P17252)
T21 construct: purchased Millipore (Upstate) KinaseProfiler
Method: as §1

IRAK4(h) = biological target: T22, IRAK4(h) (Homo sapiens, UniProt Q9NWZ3)
T22 construct: purchased Millipore (Upstate) KinaseProfiler
Method: as §1

IGF-1R(h) = biological target: T23, IGF-1R(h) (Homo sapiens, UniProt P08069)
T23 construct: purchased Millipore (Upstate) KinaseProfiler
Method: as §1

CDK1/cyclinB(h) = biological target: T24, CDK1/cyclinB(h) (Homo sapiens, UniProt P06493)
T24 construct: purchased Millipore (Upstate) KinaseProfiler
Method: as §1

LOK(h) = biological target: T25, LOK(h) (Homo sapiens, UniProt O94804)
T25 construct: purchased Millipore (Upstate) KinaseProfiler
Method: as §1

MLK1(h) = biological target: T26, MLK1(h) (Homo sapiens, UniProt P80192)
T26 construct: purchased Millipore (Upstate) KinaseProfiler
Method: as §1

EphA5(h) = biological target: T27, EphA5(h) (Homo sapiens, UniProt P54756)
T27 construct: purchased Millipore (Upstate) KinaseProfiler
Method: as §1

GRK5(h) = biological target: T28, GRK5(h) (Homo sapiens, UniProt P34947)
T28 construct: purchased Millipore (Upstate) KinaseProfiler
Method: as §1

EphB4(h) = biological target: T29, EphB4(h) (Homo sapiens, UniProt P54760)
T29 construct: purchased Millipore (Upstate) KinaseProfiler
Method: as §1

p70S6K(h) = biological target: T30, p70S6K(h) (Homo sapiens, UniProt P23443)
T30 construct: purchased Millipore (Upstate) KinaseProfiler
Method: as §1

SRPK1(h) = biological target: T31, SRPK1(h) (Homo sapiens, UniProt Q96SB4)
T31 construct: purchased Millipore (Upstate) KinaseProfiler
Method: as §1

Abl(h) = biological target: T32, Abl(h) (Homo sapiens, UniProt P00519)
T32 construct: purchased Millipore (Upstate) KinaseProfiler
Method: as §1

CDK2/cyclinA(h) = biological target: T33, CDK2/cyclinA(h) (Homo sapiens, UniProt P24941)
T33 construct: purchased Millipore (Upstate) KinaseProfiler
Method: as §1

MSK2(h) = biological target: T34, MSK2(h) (Homo sapiens, UniProt O75676)
T34 construct: purchased Millipore (Upstate) KinaseProfiler
Method: as §1

DYRK2(h) = biological target: T35, DYRK2(h) (Homo sapiens, UniProt Q92630)
T35 construct: purchased Millipore (Upstate) KinaseProfiler
Method: as §1

MEK1(h) = biological target: T36, MEK1(h) (Homo sapiens, UniProt Q02750)
T36 construct: purchased Millipore (Upstate) KinaseProfiler
Method: as §1

cKit(h) = biological target: T37, cKit(h) (Homo sapiens, UniProt P10721)
T37 construct: purchased Millipore (Upstate) KinaseProfiler
Method: as §1

SAPK2a(h) = biological target: T38, SAPK2a(h) (Homo sapiens, UniProt Q16539)
T38 construct: purchased Millipore (Upstate) KinaseProfiler
Method: as §1

cSRC(h) = biological target: T39, cSRC(h) (Homo sapiens, UniProt P12931)
T39 construct: purchased Millipore (Upstate) KinaseProfiler
Method: as §1

CK2α2(h) = biological target: T40, CK2α2(h) (Homo sapiens, UniProt P19784)
T40 construct: purchased Millipore (Upstate) KinaseProfiler
Method: as §1

CaMKI(h) = biological target: T41, CaMKI(h) (Homo sapiens, UniProt Q14012)
T41 construct: purchased Millipore (Upstate) KinaseProfiler
Method: as §1

PDGFRβ(h) = biological target: T42, PDGFRβ(h) (Homo sapiens, UniProt P09619)
T42 construct: purchased Millipore (Upstate) KinaseProfiler
Method: as §1

T42 sequence (P09619 33-1106): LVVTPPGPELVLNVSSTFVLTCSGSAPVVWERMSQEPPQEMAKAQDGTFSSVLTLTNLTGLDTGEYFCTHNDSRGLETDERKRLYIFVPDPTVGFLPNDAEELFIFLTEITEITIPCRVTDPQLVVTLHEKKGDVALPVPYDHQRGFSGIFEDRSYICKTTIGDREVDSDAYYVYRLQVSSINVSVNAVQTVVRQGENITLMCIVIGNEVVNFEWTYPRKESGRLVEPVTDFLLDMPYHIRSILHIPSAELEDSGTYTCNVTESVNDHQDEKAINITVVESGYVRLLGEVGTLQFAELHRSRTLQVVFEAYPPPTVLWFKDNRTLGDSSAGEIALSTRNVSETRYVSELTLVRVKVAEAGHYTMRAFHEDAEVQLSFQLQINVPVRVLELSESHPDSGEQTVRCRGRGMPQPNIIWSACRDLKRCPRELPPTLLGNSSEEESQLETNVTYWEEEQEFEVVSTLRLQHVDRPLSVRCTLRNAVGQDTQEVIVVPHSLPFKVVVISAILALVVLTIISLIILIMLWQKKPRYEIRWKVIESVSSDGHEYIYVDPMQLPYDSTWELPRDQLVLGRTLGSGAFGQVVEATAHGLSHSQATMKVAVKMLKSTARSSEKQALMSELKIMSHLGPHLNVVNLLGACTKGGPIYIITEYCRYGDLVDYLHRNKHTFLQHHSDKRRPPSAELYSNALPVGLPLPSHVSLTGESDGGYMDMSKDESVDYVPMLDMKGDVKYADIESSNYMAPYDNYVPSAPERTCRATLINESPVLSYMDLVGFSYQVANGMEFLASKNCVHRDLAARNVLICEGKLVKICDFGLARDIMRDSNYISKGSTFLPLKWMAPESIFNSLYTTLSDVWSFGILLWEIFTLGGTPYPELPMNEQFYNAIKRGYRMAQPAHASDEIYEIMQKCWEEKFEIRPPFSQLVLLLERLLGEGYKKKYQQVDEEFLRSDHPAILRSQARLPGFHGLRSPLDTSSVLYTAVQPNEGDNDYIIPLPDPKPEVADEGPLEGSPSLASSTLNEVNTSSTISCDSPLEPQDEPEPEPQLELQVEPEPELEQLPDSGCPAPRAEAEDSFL
T26 sequence (P80192 whole entry): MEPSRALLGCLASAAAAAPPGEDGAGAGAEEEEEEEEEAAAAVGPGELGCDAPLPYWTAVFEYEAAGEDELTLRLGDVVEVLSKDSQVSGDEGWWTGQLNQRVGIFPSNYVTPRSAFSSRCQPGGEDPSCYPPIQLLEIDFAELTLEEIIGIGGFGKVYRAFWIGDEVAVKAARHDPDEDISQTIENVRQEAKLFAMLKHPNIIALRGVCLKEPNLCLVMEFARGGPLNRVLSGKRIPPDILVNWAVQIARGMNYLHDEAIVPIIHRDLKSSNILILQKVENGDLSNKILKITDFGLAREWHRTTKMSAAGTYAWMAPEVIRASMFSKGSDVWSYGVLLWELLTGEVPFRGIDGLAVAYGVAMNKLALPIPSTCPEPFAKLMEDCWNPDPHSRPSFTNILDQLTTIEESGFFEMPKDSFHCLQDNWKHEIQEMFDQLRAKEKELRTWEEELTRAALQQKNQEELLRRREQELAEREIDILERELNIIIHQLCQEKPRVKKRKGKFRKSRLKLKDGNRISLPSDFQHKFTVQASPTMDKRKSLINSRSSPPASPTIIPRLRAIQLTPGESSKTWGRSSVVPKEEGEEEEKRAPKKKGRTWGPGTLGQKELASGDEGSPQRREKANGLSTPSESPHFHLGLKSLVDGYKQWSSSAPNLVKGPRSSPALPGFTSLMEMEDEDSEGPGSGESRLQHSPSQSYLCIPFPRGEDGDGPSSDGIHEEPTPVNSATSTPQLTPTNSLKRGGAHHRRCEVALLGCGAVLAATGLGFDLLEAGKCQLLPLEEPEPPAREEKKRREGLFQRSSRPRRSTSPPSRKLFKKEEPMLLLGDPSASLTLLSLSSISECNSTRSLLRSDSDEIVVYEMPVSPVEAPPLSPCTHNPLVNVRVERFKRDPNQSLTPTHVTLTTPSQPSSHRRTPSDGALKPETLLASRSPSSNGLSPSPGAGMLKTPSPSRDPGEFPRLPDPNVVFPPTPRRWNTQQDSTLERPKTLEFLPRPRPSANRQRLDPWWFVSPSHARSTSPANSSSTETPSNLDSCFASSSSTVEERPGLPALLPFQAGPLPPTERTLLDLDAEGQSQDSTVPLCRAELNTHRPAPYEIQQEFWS
T25 sequence (O94804 whole entry): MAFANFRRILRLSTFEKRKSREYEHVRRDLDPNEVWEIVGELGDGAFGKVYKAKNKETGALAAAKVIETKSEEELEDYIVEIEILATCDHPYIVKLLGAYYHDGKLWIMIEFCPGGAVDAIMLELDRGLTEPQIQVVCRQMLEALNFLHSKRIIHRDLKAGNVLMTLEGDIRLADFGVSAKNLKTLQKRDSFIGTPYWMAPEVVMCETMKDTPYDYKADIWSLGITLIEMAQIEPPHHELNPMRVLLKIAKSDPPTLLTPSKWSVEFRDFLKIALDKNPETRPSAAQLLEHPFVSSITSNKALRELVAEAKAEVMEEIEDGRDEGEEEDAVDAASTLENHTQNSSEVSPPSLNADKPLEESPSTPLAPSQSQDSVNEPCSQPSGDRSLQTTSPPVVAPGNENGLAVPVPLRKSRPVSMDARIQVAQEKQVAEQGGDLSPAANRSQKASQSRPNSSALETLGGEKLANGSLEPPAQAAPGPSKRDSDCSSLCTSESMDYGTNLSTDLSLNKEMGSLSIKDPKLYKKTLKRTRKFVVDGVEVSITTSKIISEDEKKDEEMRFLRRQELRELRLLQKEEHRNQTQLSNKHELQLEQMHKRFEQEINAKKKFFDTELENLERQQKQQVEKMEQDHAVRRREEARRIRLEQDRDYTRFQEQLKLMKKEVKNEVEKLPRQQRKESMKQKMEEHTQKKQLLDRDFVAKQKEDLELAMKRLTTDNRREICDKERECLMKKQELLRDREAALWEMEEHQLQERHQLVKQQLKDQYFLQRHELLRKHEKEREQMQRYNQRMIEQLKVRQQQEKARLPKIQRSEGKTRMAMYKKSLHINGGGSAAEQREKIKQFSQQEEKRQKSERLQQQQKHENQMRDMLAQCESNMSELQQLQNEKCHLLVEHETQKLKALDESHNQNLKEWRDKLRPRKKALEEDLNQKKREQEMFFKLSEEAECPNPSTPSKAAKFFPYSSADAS
T30 sequence (P23443 whole entry): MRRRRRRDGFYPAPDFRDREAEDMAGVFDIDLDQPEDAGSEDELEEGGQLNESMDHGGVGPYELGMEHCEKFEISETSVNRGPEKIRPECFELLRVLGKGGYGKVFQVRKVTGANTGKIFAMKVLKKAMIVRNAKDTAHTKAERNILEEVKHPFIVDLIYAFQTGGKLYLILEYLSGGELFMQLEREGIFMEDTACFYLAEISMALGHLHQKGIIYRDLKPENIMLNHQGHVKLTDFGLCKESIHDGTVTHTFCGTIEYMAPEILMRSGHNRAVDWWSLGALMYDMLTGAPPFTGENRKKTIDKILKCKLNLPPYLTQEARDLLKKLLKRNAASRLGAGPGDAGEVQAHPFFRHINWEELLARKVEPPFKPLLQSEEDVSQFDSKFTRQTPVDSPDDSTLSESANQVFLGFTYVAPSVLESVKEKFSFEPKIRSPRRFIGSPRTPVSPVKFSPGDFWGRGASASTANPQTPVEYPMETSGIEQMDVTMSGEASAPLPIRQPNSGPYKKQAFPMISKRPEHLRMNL
T35 sequence (Q92630 whole entry): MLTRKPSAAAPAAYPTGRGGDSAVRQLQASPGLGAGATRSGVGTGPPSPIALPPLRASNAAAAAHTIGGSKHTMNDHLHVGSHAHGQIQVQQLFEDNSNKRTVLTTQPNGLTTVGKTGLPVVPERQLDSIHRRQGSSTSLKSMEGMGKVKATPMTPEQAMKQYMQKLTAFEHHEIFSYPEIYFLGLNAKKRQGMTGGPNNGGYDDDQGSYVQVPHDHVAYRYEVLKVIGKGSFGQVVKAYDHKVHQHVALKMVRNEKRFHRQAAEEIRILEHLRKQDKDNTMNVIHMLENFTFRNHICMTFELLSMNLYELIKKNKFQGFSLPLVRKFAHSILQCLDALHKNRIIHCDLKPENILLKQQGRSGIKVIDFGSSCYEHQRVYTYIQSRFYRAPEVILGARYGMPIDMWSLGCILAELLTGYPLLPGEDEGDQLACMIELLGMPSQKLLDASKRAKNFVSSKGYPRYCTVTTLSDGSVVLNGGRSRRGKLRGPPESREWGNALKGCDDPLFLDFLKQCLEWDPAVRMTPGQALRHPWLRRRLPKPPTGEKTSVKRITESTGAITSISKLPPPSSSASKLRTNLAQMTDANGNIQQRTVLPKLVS

Compound `Cc1cccn2cc(-c3ccc(NC(=O)c4ccccc4Br)cc3)nc12` [MS-0022, 2-bromo-N-(4-(8-methylimidazo[1,2-a]pyridin-2-yl)phenyl)benzamide] has an activity at 10 µM (ALK(h)) of 95%, an activity at 10 µM (MAPK2(h)) of 101% and an activity at 10 µM (eEF-2K(h)) of 99%. It also gave an activity at 10 µM (DRAK1(h)) of 97%, an activity at 10 µM (CDK9/cyclin T1(h)) of 98% and an activity at 10 µM (MST1(h)) of 94%. It also gave an activity at 10 µM (CHK1(h)) of 84%, an activity at 10 µM (IKKα(h)) of 103% and an activity at 10 µM (PRAK(h)) of 71%. For the same compound, the activity at 10 µM (PKA(h)) was 100%, the activity at 10 µM (Plk3(h)) was 107% and the activity at 10 µM (MAPKAP-K2(h)) was 92%. It also gave an activity at 10 µM (JNK3(h)) of 71%, an activity at 10 µM (MKK7β(h)) of 109% and an activity at 10 µM (PKG1α(h)) of 94%. The activity at 10 µM (Mnk2(h)) was 90%, the activity at 10 µM (PKBα(h)) was 107% and the activity at 10 µM (CDK7/cyclinH/MAT1(h)) was 103%. The activity at 10 µM (JAK2(h)) was 110%, the activity at 10 µM (ASK1(h)) was 91% and the activity at 10 µM (PKCα(h)) was 106%. The activity at 10 µM (IRAK4(h)) was 95%, the activity at 10 µM (IGF-1R(h)) was 105% and the activity at 10 µM (CDK1/cyclinB(h)) was 110%. The activity at 10 µM (LOK(h)) was 93%, the activity at 10 µM (MLK1(h)) was 103% and the activity at 10 µM (EphA5(h)) was 112%. For the same compound, the activity at 10 µM (GRK5(h)) was 119%, the activity at 10 µM (EphB4(h)) was 99% and the activity at 10 µM (p70S6K(h)) was 94%. It also gave an activity at 10 µM (SRPK1(h)) of 102%, an activity at 10 µM (Abl(h)) of 96% and an activity at 10 µM (CDK2/cyclinA(h)) of 98%. The activity at 10 µM (MSK2(h)) was 92%, the activity at 10 µM (DYRK2(h)) was 97% and the activity at 10 µM (MEK1(h)) was 73%. The activity at 10 µM (cKit(h)) was 109%, the activity at 10 µM (SAPK2a(h)) was 102% and the activity at 10 µM (cSRC(h)) was 83%. It also gave an activity at 10 µM (CK2α2(h)) of 109%, an activity at 10 µM (CaMKI(h)) of 106% and an activity at 10 µM (PDGFRβ(h)) of 108%.
